Measured values from ChEMBL document CHEMBL3588750 (Medchemcomm, 2014).

What was measured:
[1] = target: Somatostatin receptor type 5 (Homo sapiens, UniProt P35346); test: Inhibition of radiolabeled somatostatin-14 binding to human recombinant SSTR5
[2] = target: Somatostatin receptor type 4 (Homo sapiens, UniProt P31391); test: Inhibition of radiolabeled somatostatin-14 binding to human recombinant SSTR4
Chain of Somatostatin receptor type 4 (P31391 whole entry): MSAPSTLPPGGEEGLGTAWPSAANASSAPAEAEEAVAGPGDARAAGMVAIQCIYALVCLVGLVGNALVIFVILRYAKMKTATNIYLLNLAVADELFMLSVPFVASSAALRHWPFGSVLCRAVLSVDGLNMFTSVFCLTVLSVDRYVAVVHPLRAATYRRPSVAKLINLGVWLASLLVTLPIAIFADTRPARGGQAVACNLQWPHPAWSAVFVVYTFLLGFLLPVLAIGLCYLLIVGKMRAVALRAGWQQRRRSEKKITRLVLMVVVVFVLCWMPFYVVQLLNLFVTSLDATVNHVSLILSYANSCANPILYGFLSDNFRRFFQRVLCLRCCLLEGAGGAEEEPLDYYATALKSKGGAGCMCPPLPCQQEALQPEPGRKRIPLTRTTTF

Chain of Somatostatin receptor type 5 (P35346 whole entry): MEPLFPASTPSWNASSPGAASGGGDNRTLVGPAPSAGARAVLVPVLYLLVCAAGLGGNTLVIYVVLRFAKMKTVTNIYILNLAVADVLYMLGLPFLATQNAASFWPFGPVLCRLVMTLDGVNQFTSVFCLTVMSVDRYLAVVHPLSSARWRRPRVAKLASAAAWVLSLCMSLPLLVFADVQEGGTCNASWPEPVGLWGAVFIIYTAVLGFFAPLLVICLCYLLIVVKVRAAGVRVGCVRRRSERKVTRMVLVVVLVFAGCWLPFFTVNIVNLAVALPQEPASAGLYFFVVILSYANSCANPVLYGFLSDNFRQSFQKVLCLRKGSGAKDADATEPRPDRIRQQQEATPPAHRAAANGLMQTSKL

Structure (SMILES)	Ki [1]	Ki ([2]; read-out: Ki) [µM]	Ki ([1]; read-out: Ki) [µM]	Ki [2]
NCCCCCOC[C@@H]1[C@@H](O)[C@H](O)[C@@H](O)CN1CCc1c[nH]c2ccccc12	Not Active	3.2	–	–
NCCCCC[C@@H]1[C@@H](O)[C@H](O)[C@@H](O)CN1Cc1ccc2ccccc2c1	–	–	34	Not Active
CC(=O)O[C@H]1[C@H](OC(C)=O)[C@@H](CCCCCN)N(Cc2ccc3ccccc3c2)C[C@@H]1OC(C)=O	–	5.4	7.7	–
NCCCCC[C@@H]1[C@@H](OCc2ccccc2)[C@H](OCc2ccccc2)[C@@H](OCc2ccccc2)CN1Cc1ccc2ccccc2c1	–	1.9	2	–
